Source: PMC2409895, “Antitumour efficacy of VEGFR2 tyrosine kinase inhibitor correlates with expression of VEGF and its receptor VEGFR2 in tumour models” (British Journal of Cancer, 2004)

Assays:
[1] = system: HUVEC grown in presence of bFGF; test: bFGF-induced HUVEC proliferation (BrdU incorporation); assay type: cell-based; conditions: Homo sapiens, bFGF 0.3 ng ml^−1, 72 h
Protocol: (§1) Effect of kinase inhibitors on cell proliferation was measured using BrdU incorporation method using commercially available kits (Roche Diagnostics, Indianapolis, IN, USA). Briefly, HUVEC were seeded in a medium containing 5% FBS in type 1 Collagen-coated 96-well plates and incubated overnight at 37°C, 5% CO2. The medium was aspirated from the cells, and various concentrations of kinase inhibitors in serum-free medium were added to each well. After 30 min, VEGF (10 ng ml^−1) or bFGF (0.3 ng ml^−1) was added to the wells. Cells were incubated for an additional 72 h and BrdU (10 μM) was added during the last 18–24 h of incubation. Data were fitted with a curve described by the equation, y=Vmax × (1−(x/(K+x))), where K is equal to the IC50.

[2] = system: HUVEC grown in presence of VEGF; test: VEGF-induced HUVEC proliferation (BrdU incorporation); assay type: cell-based; conditions: Homo sapiens, VEGF 10 ng ml^−1, 72 h
Protocol: as §1

human VEGFR2 kinase = biological target: T1, human VEGFR2 kinase (Homo sapiens, UniProt P35968); test: VEGFR2 kinase assay (HTRF); assay type: biochemical; conditions: Table 1
T1 construct: GST-fusion protein encoding the catalytic carboxyl-terminus of human VEGFR kinase 1, 2, or 3; made in house; host or cells: baculovirus expression system
T1 sequence (P35968 834-1162 limits assumed): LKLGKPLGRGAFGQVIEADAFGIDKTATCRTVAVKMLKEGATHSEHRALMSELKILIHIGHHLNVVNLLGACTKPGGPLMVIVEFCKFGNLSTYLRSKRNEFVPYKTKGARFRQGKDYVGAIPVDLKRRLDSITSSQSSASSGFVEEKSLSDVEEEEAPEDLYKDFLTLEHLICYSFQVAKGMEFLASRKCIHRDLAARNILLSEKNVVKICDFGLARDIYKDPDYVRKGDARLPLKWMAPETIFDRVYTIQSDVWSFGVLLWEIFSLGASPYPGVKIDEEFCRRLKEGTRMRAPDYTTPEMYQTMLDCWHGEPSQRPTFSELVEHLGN
Protocol: Vascular endothelial growth factor receptor kinase assays were carried out in a homogenous time-resolved fluorescence (HTRF) format in 384-well microtitre plates using a purified, baculovirus-expressed GST-fusion protein encoding the catalytic carboxyl-terminus of human VEGFR kinase 1, 2, or 3. Reactions were initiated by the addition of 10 μl of activated VEGFR kinase (1 nM, 0.1 M HEPES pH 7.5, 0.1 mg ml^−1 BSA, and 0.30 mM DTT) to 10 μl of substrate (360 nM biotin-aminohexyl-EEEEYFELVAKKKK-NH2 peptide, 75 μM ATP, 10 mM MgCl2) and 1 μl of small molecule inhibitor at various concentrations. Plates were incubated at room temperature for 60 min, and the reaction was stopped by the addition of 20 μl 100 mM EDTA. Homogenous time-resolved fluorescence reagents (20 μl 15 nM streptavidin-linked allophycocyanin, 1 nM europium-labelled anti-phosphotyrosine antibody in 0.1 M HEPES, pH 7.5, 0.1 mg ml^−1 BSA) were added and plates were incubated for a minimum of 10 min. The fluorescence at 665 nm was measured with a Victor plate reader (Wallac, Shelton, CT, USA) using a time delay of 50 μs. […] Data were fitted with a curve described by: y=((Vmax × x)/(K+x)+Y2), where Vmax is the upper asymptote, Y2 is the Y intercept, and K is the IC50.

Row | Compound | IC50 [1] [µM] | IC50 [2] [µM] | IC50 (human VEGFR2 kinase) [µM]
1 | Cc1n[nH]c2cc(N(C)c3ccnc(Nc4cc(S(N)(=O)=O)ccc4Cl)n3)ccc12 [GW695612, 4-chloro-3-({4-[methyl(3-methyl-1H-indazol-6-yl)amino]pyrimidin-2-yl}amino)benzenesulphonamide] | 3.84 | 0.26 | 0.0011
2 | COc1cc(Nc2nccc(Nc3ccc4c(C)n[nH]c4c3)n2)cc(OC)c1OC [GW612286, N^4-(3-methyl-1H-indazol-6-yl)-N^2-(3,4,5-trimethoxyphenyl)pyrimidine-2,4-diamine] | 3.63 | 0.18 | 0.008
